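1) Cells in 96-well plates. 2) Compound, 48 h, 5 concentrations. 3) Linear interpolation between surrounding doses. 4) Unreached endpoint = highest concentration. GI50 is the concentration that inhibits growth by half.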 Active and inactive are the calls of the source. Rule as the data show it: active = GI50 up to about 1.1 µM and inactive = higher.
What was measured:
Experiment in all cases: DTP human tumour cell line panel, 48 h
HCC 2998 = test system: HCC 2998
SK-MEL-28 = test system: SK-MEL-28
OVCAR-8 = test system: OVCAR-8
SNB-75 = test system: SNB-75
SK-MEL-2 = test system: SK-MEL-2
A498 = test system: A498
OVCAR-5 = test system: OVCAR-5
SW-620 = test system: SW-620
M14 = test system: M14
SK-MEL-5 = test system: SK-MEL-5
UACC-257 = test system: UACC-257
NCI-H226 = test system: NCI-H226
SK-OV-3 = test system: SK-OV-3
RPMI-8226 = test system: RPMI-8226
KM12 = test system: KM12
LOX IMVI = test system: LOX IMVI
T47D = test system: T47D
HOP-62 = test system: HOP-62
U-251 = test system: U-251
CAKI-1 = test system: CAKI-1

Measured: GI50

CCNc1nc2c(ncn2C2CC(O)C(COP(=O)(O)O)O2)c(=O)[nH]1 (stereo not given)
inactive: HCC 2998 > 100 µM | SK-MEL-28 > 100 µM | OVCAR-8 > 100 µM | SNB-75 > 100 µM | SK-MEL-2 > 100 µM | A498 > 100 µM | OVCAR-5 > 100 µM | SW-620 > 100 µM | M14 > 100 µM | SK-MEL-5 > 100 µM | UACC-257 > 100 µM | NCI-H226 > 100 µM | SK-OV-3 > 100 µM | RPMI-8226 > 100 µM | KM12 > 100 µM | LOX IMVI > 100 µM | T47D > 100 µM | HOP-62 > 100 µM | U-251 > 100 µM | CAKI-1 > 100 µM

CC(C)(C)[C@H]1CCC2(OCCO2)[C@](O)(CCCO)C1
inactive: HCC 2998 > 100 µM | SK-MEL-28 > 100 µM | OVCAR-8 > 100 µM | SNB-75 > 100 µM | SK-MEL-2 > 100 µM | A498 > 100 µM | OVCAR-5 > 100 µM | SW-620 > 100 µM | M14 > 100 µM | SK-MEL-5 > 100 µM | UACC-257 > 100 µM | NCI-H226 > 100 µM | SK-OV-3 > 100 µM | RPMI-8226 > 100 µM | KM12 > 100 µM | LOX IMVI > 100 µM | T47D > 100 µM | HOP-62 > 100 µM | U-251 > 100 µM | CAKI-1 > 100 µM

CSC(=S)N/N=C/c1ccccc1
inactive: HCC 2998 > 100 µM | SK-MEL-28 94.2 µM | OVCAR-8 37.1 µM | SNB-75 58.7 µM | SK-MEL-2 > 100 µM | A498 > 100 µM | OVCAR-5 > 100 µM | SW-620 54.8 µM | M14 29.4 µM | SK-MEL-5 22.5 µM | UACC-257 > 100 µM | NCI-H226 40.6 µM | SK-OV-3 > 100 µM | RPMI-8226 36.4 µM | KM12 65.6 µM | LOX IMVI 45.1 µM | T47D 16.3 µM | HOP-62 40.7 µM | U-251 52.6 µM | CAKI-1 24.5 µM

O=C1OC(=O)C2C1C(c1ccccc1[N+](=O)[O-])C=C(c1ccco1)N2c1ccncc1 (stereo not given)
inactive: HCC 2998 1.86 µM | SK-MEL-28 8.34 µM | OVCAR-8 10.7 µM | SNB-75 14 µM | SK-MEL-2 13.9 µM | A498 12.2 µM | OVCAR-5 18.2 µM | SW-620 6.15 µM | M14 6.84 µM | SK-MEL-5 4.09 µM | UACC-257 2.08 µM | NCI-H226 12.8 µM | SK-OV-3 17.6 µM | RPMI-8226 1.87 µM | KM12 1.98 µM | LOX IMVI 1.87 µM | T47D 4.97 µM | HOP-62 15.3 µM | U-251 3.94 µM | CAKI-1 16 µM

CCOC(=O)C12CC(C)=C(C)CC1CCCc1ccccc12 (stereo not given)
inactive: HCC 2998 14.2 µM | SK-MEL-28 30.8 µM | OVCAR-8 28.9 µM | SNB-75 28.8 µM | SK-MEL-2 15.5 µM | A498 23 µM | OVCAR-5 21.4 µM | SW-620 20.8 µM | M14 30.3 µM | SK-MEL-5 21.5 µM | UACC-257 17.6 µM | NCI-H226 24.5 µM | SK-OV-3 32 µM | RPMI-8226 12.5 µM | KM12 29.6 µM | LOX IMVI 17.1 µM | T47D 15 µM | HOP-62 38.3 µM | U-251 18.4 µM | CAKI-1 31.1 µM

CC(NC(NC(C)C12CC3CC(CC(C3)C1)C2)=C(C(Cl)=C(Cl)Cl)[N+](=O)[O-])C12CC3CC(CC(C3)C1)C2 (stereo not given)
inactive: HCC 2998 23.4 µM | SK-MEL-28 26.4 µM | OVCAR-8 2.77 µM | SNB-75 43.4 µM | SK-MEL-2 15 µM | A498 36.1 µM | OVCAR-5 32.1 µM | SW-620 17.6 µM | M14 16.4 µM | SK-MEL-5 13.2 µM | UACC-257 14.5 µM | NCI-H226 > 26.2 µM | SK-OV-3 71.1 µM | RPMI-8226 > 36.7 µM | KM12 47.3 µM | LOX IMVI 9.95 µM | T47D 20.4 µM | HOP-62 32.7 µM | U-251 3.38 µM | CAKI-1 16.9 µM
